According to patent US20130281463A1, “DIAZA-SPIRO[5.5]UNDECANES USEFUL AS OREXIN RECEPTOR ANTAGONISTS” (NOVARTIS AG, priority 2010, published 2013):
Where two headings read alike, the source gives them in different places.

Assays:
[1] = target: T1, human orexin 2 receptors (Homo sapiens, UniProt O43614); assay: Calcium accumulation in cells (FLIPR), hOx2R; type: cell-based; conditions: inhibition of orexin A induced calcium accumulation; Cheng and Prusoff correction
T1 construct: expressed in transfected cells
T1 sequence (O43614 1-444): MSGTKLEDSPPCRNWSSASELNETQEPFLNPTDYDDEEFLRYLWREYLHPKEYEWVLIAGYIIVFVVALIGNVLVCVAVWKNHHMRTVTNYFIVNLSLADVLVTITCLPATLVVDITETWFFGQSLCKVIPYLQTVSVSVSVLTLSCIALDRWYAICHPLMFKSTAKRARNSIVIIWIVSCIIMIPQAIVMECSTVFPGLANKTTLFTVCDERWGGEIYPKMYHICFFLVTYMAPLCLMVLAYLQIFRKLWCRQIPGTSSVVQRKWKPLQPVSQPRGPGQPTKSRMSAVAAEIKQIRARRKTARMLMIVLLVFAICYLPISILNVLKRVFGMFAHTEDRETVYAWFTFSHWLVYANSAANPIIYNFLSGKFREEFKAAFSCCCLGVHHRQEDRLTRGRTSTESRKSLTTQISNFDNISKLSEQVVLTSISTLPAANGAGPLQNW
Protocol: (§1) Cells expressing human orexin 1 or human orexin 2 receptors, were seeded at 8,000 cells/well in 384 well black-walled clear bottom, poly-D-lysine coated plates. After 24 h, the medium was removed and cells were washed once with phosphate buffered saline and serum-deprived overnight in assay buffer (130 mM NaCl, 5.4 mM KCl, 1.8 mM CaCl2, 0.8 mM MgSO4, 0.9 mM NaH2PO4, 25 mM glucose, 20 mM HEPES, pH 7.4) containing bovine serum albumin (1% w/v).
On the day of the experiment, the cells seeded in black plates were treated with assay buffer containing the Ca^2+ sensitive fluorescent dye Fluo4-AM (2 μM), and probenecid (0.1 mM). After 1 h plates were washed twice with, and resuspended in, assay buffer containing probenecid (0.1 mM) using a multi plate washer. […] Fluorescence measurements were then continued every 1 S for 120 S followed by every 4 S for 240 S.
(§2) Compounds of formula I were tested usually in a concentration range from 10^−9 M to 10^−5M.
(§3) In the second round, performed one hour later (to allow for equilibration), Orexin A was tested either in the absence (calibration curves, Orexin A agonist controls) or in the presence of compounds of formula I to determine antagonism.

[2] = target: T1, human orexin 2 receptors; assay: Radioligand binding assay ([3H]-SB649868 competition), hOx2R; conditions: competition with about 1 nM [3H]-SB649868, cell membranes
Protocol: For crude cell membrane preparations, cells (CHO, Chinese hamster ovary or HEK, human embryonic kidney) expressing human orexin 1 or human orexin 2 receptors, were washed with HEPES (10 mM, pH 7.5), scraped off the culture plates with the same buffer, and centrifuged at 4° C. for 5 min at 2500×g. The cell pellet was either stored at −80° C. or used directly. Before the experiments, cell membranes were re-suspended in binding assay buffer (10 mM HEPES, 0.5% (w/v) bovine serum albumin, pH 7.5) by homogenisation with a Polytron homogeniser at 50 Hz for 20 s.

[3] = target: T2, human orexin 1 receptors (Homo sapiens, UniProt O43613); assay: Radioligand binding assay ([3H]-SB649868 competition), hOx1R; design: expressed in transfected cells; conditions: competition with about 1 nM [3H]-SB649868, cell membranes
T2 sequence (O43613 1-425): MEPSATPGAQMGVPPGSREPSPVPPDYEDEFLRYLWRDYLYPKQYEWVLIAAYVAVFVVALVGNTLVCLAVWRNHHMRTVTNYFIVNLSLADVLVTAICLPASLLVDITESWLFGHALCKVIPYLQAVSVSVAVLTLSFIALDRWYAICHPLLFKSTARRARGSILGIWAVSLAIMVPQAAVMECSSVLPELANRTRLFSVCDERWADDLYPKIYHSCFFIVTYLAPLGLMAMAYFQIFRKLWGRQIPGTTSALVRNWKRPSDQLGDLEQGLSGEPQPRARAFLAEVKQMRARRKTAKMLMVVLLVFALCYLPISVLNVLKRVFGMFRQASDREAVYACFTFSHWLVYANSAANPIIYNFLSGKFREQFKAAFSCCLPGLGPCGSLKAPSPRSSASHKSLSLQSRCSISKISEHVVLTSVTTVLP
Protocol: The cell pellet was either stored at −80° C. or used directly. Before the experiments, cell membranes were re-suspended in binding assay buffer (10 mM HEPES, 0.5% (w/v) bovine serum albumin, pH 7.5) by homogenisation with a Polytron homogeniser at 50 Hz for 20 s. Cell membranes were also used as made available by commercial providers.
Bound radioactivity was measured, and data were analysed with the program XLFIT or Graphpad Prism. Protein concentration was determined according to the Bradford/BioRad Protein Assay Kit.
In competition experiments, cell homogenates (150 μl) were incubated in assay buffer (10 mM HEPES, pH 7.5, 0.5% (w/v) bovine serum albumin, 5 mM MgCl2, 1 mM CaCl2, and tween 0.05%) for 1 h at room temperature with about 1 nM of the radioligand [^3H]-SB649868, 66 Ci/mmole, 50 μl), and with various concentrations of compounds of the invention (50 μl) in triplicates; non-specific binding was determined in the presence of almorexant (10 μM). Reactions were terminated by vacuum filtration, 3 washes of ice cold wash buffer (Tris-HCl pH 7.4/10 mM, with NaCl 154 mM). Competition data is expressed in Table 2 as Kd [μM].

[4] = target: T2, human orexin 1 receptors; assay: Calcium accumulation in cells (FLIPR), hOx1R
Protocol: as §1
On the day of the experiment, the cells seeded in black plates were treated with assay buffer containing the Ca^2+ sensitive fluorescent dye Fluo4-AM (2 μM), and probenecid (0.1 mM). After 1 h plates were washed twice with, and resuspended in, assay buffer containing probenecid (0.1 mM) using a multi plate washer. The plates were placed into a FLIPR II (Fluorometric Imaging Plate Reader, Molecular Devices, Sunnyvale, Calif., USA) and baseline fluorescence (fluorescence light units, FLU) was measured (5 measurements, 2 S each; laser excitation 488 nm at 0.6-1 W, CCD camera exposure 0.4 s) before addition of buffer alone (basal) or containing test compounds (either compound of formula I alone, agonist alone or agonist in the presence of various concentrations of compounds of formula I). Fluorescence measurements were then continued every 1 S for 120 S followed by every 4 S for 240 S.
as §2, §3
Inhibition data is expressed in Table 2 as Ki [μM], converted by the Cheng and Prusoff correction (Ki=IC50/1+(L/EC50)), where IC50 is the 50% inhibition value determined in concentration response inhibition curves, EC50 is the half maximal activation concentration determined for orexin A in concentration response curves and L is the concentration of orexin A used in inhibition experiments performed in with a submaximal concentration of orexin A in the presence of up to 8 increasing concentrations of compound of formula I. Inhibition data is also expressed in Table 2 as % inhibition value measured at a concentration of 10 μM of selected compounds of formula I.

[5] = read-out: FLIPR hOx1R Ki, inhibition of orexin A induced calcium accumulation, Cheng and Prusoff correction

For `COc1ccnc(N2CCC3(CCCN(Cc4c[nH]c5ccccc45)C3=O)CC2)n1` [Example 13, 2-((1H-indol-3-yl)methyl)-9-(4-methoxypyrimidin-2-yl)-2,9-diazaspiro[5.5]undecan-1-one], the Ki [1] was 14 nM.
Work on `COc1cc(-c2nn(C)nc2CN2CCCC3(CCN(c4nc(C)cc(C)n4)CC3)C2=O)ccn1` [Example 122, 9-(4,6-dimethylpyrimidin-2-yl)-2-((5-(2-methoxypyridin-4-yl)-2-methyl-2H-1,2,3-triazol-4-yl)methyl)-2,9-diazaspiro[5.5]undecan-1-one] yielded a Kd [2] of 14 nM, a Kd [3] of 130 nM and a Ki [1] of 1.4 nM. The Ki [4] was 176 nM.
For `Cc1cc(C#N)nc(N2CCC3(CCCN(Cc4ccccc4-n4nccn4)C3=O)CC2)n1` [Example 25, 2-(2-(2-(2H-1,2,3-triazol-2-yl)benzyl)-1-oxo-2,9-diazaspiro[5.5]undecan-9-yl)-6-methylpyrimidine-4-carbonitrile], the Kd [2] was 389 nM, the Kd [3] was greater than 10000 nM and the Ki [1] was 68 nM. It also gave a Ki [4] of 3700 nM.
Compound `COc1cncc(N2CCC3(CCCN(Cc4c[nH]c5ccccc45)C3=O)CC2)n1` [Example 82, 2-((1H-indol-3-yl)methyl)-9-(6-methoxypyrazin-2-yl)-2,9-diazaspiro[5.5]undecan-1-one] has a Kd [2] of 3160 nM, a Kd [3] greater than 10000 nM and a Ki [1] of 57 nM. For the same compound, the Ki [4] was 856 nM.
Work on `COC(=O)c1ccc2[nH]cc(CN3CCCC4(CCN(c5nc(C)cc(C)n5)CC4)C3=O)c2c1` [Example 115, Methyl 3-((9-(4,6-dimethylpyrimidin-2-yl)-1-oxo-2,9-diazaspiro[5.5]undecan-2-yl)methyl)-1H-indole-5-carboxylate] yielded a Ki [1] of 0.7 nM and a Ki [4, 5] of 21 nM.
`O=C1N(Cc2cccc3c2OCCO3)CCCC12CCN(c1cncc(Cl)n1)CC2` [Example 21, 9-(6-chloropyrazin-2-yl)-2-((2,3-dihydrobenzo[b][1,4]dioxin-5-yl)methyl)-2,9-diazaspiro[5.5]undecan-1-one] showed a Ki [1] of 247 nM and an inhibition at 10 µM ([4]; read-out: FLIPR hOx1R % inhibition value) of 26%.
`Cc1cc(C)nc(N2CCC3(CCCN(Cc4ccccc4-c4nc(C)no4)C3=O)CC2)n1` [Example 1, 9-(4,6-dimethylpyrimidin-2-yl)-2-(2-(3-methyl-1,2,4-oxadiazol-5-yl)benzyl)-2,9-diazaspiro[5.5]undecan-1-one] was tested, and the Ki [1] was 7 nM and the Ki [4, 5] was 1620 nM.
